Laboratory results: publication PMC9413440, “An Iterative Approach Guides Discovery of the FabI Inhibitor Fabimycin, a Late-Stage Antibiotic Candidate with In Vivo Efficacy against Drug-Resistant Gram-Negative Infections” (ACS Central Science, 2022)
Values after ≈ are worked out from the molar mass of the structure shown.

Assays:
A. baumannii AR-0033 = assay: MIC, broth microdilution (CLSI); format: cell-based; settings: Acinetobacter baumannii, AR0033; A. baumannii AR-0033 clinical isolate; † = dose-independent trailing growth
Method: (§1) II. Materials and Methods for Biological Experiments
(§2) S. aureus ATCC 29213 and E. coli MG1655 were obtained from the American Type Culture Collection (ATCC). E. coli BW25113 and E. coli JW5503 were obtained from the Keio Collection. AR-bank strains were obtained from the Centers for Disease Control and Prevention and FDA Antibiotic Resistance Isolate Bank.
(§3) Antimicrobial susceptibility tests
(§4) Susceptibility testing was performed in biological triplicate, unless noted otherwise, using the micro-dilution broth method as outlined by the Clinical and Laboratory Standards Institute. Bacteria were cultured with cation-adjusted Mueller Hinton broth (Sigma Aldrich, catalogue number: 90922). […]
(§5) NH3: m/z 391.2 → 171.0. Fabimycin: m/z 405.3 → 145.3. Power analysis was not used to determine the number of replicates. Error bars represent the standard error of the mean of three biological replicates. All compounds evaluated in biological assays were ≥95% pure.

A. baumannii AR-0273 = assay: MIC, broth microdilution (CLSI); format: cell-based; settings: Acinetobacter baumannii, AR0273; A. baumannii AR-0273 clinical isolate
Method: as §1, §2, §3, §4, §5

A. baumannii AR-0299 = assay: MIC, broth microdilution (CLSI); format: cell-based; settings: Acinetobacter baumannii, AR0299; A. baumannii AR-0299 clinical isolate; † = dose-independent trailing growth
Method: as §1, §2, §3, §4, §5

E. coli AR-0048 = assay: MIC, broth microdilution (CLSI); format: cell-based; settings: Escherichia coli, AR0048; E. coli AR-0048 clinical isolate
Method: as §1, §2, §3, §4, §5

E. coli AR-0085 = assay: MIC, broth microdilution (CLSI); format: cell-based; settings: Escherichia coli, AR0085; E. coli AR-0085 clinical isolate
Method: as §1, §2, §3, §4, §5

E. coli MG1655 = assay: MIC, broth microdilution (CLSI); format: cell-based; settings: Escherichia coli
Method: as §1, §2, §3, §4, §5

K. pneumoniae AR-0066 = assay: MIC, broth microdilution (CLSI); format: cell-based; settings: Klebsiella pneumoniae, AR0066; K. pneumoniae AR-0066 clinical isolate
Method: as §1, §2, §3, §4, §5

K. pneumoniae AR-0560 = assay: MIC, broth microdilution (CLSI); format: cell-based; settings: Klebsiella pneumoniae, AR0560; K. pneumoniae AR-0560 clinical isolate
Method: as §1, §2, §3, §4, §5

K. pneumoniae BAA-2472 = assay: MIC, broth microdilution (CLSI); format: cell-based; settings: Klebsiella pneumoniae, BAA2472
Method: as §1, §2, §3, §4, §5

S. aureus ATCC 29213 = assay: MIC, broth microdilution (CLSI); format: cell-based; settings: Staphylococcus aureus, ATCC29213; S. aureus 29213
Method: as §1, §2, §3, §4, §5

E. coli ΔtolC (JW5503) = assay: MIC, broth microdilution (CLSI); format: cell-based, Escherichia coli; settings: Escherichia coli
Method: as §1, §2, §3, §4, §5

A. baumannii AR-0313 = assay: MIC, broth microdilution (CLSI); format: cell-based; settings: Acinetobacter baumannii, AR0313; A. baumannii AR-0313 clinical isolate; † = dose-independent trailing growth
Method: as §1, §2, §3, §4
(§6) Error bars represent the standard error of the mean of three biological replicates. All compounds evaluated in biological assays were ≥95% pure.

K. pneumoniae AR-0113 = assay: MIC, broth microdilution (CLSI); format: cell-based; settings: Klebsiella pneumoniae, AR0113; K. pneumoniae AR-0113 clinical isolate
Method: as §1, §2, §3, §4, §6

A. baumannii FabI = A. baumannii FabI (Acinetobacter baumannii, UniProt D0CAD5); assay: In vitro FabI enzymatic inhibition assay; format: biochemical; settings: AbFabI; Morrison's quadratic fit; 5 nM enzyme; read-out: Ki app
Method: (§7) supplemented with 100 µg/mL ampicillin at 37°C until OD600 reached 0.6-0.7. The cells were induced with 1mM IPTG and incubated for 20 hours at 18°C and spun down at 8000 rpm for 15 minutes. Cell pellet was resuspended in the lysis buffer (50 mM Tris-HCl pH 8.0, 500 mM Na Cl, 20 mM imidazole, 10% glycerol, 0.5 mM TCEP, protease inhibitor and Lysonase) and passed through microfluidizer followed by centrifugation and filtration to remove cell debris. The clarified lysate was supplemented with 20 mM imidazole and passed over a HisTrap column (Cytiva) pre-equilibrated with the wash buffer (50 mM Tris-HCl pH 8.0, 500 mM NaCl, 20 mM imidazole, 10% glycerol, 0.5 mM TCEP). The column was washed with the wash buffer and eluted over a 20-500 mM imidazole gradient. The appropriate fractions were pooled, and the histidine tag was removed by TEV cleavage. The protein mixture was passed over a HisTrap column to separate the cleaved protein from the uncleaved ones. The cleaved protein was pooled and passed over an S75 size exclusion column (GE LifeSciences) pre-equilibrated with 50 mM Tris-HCl pH 8.0, 500 mM NaCl, 0.5 mM TCEP and 10% glycerol. Fractions containing pure protein were pooled, concentrated at 10 mg/mL and stored at -80°C. […]
(§8) In vitro FabI enzymatic inhibition assay
(§9) Recombinant E. coli and A. baummani FabI enzymes were used in a continuous NADH absorbance assay (20 µL in 384w format). Compounds and the Crotonyl-CoA substrate (Sigma–Aldrich 28007) were dispensed into a plate (GeinerBio-One 781101). The reaction was initiated by the addition of a reaction master mix solution containing enzyme and NADH (Sigma–Aldrich N8129) suspended in reaction buffer (50 mM HEPES pH 7.4, 150 mM NaCl, 1 mM EDTA, 0.01 mg/mL BSA, 0.01% Tween). Final concentrations were 5 nM enzyme, 150 μM Crotonyl-CoA, 380 μM NADH, 0.05% DMSO in 1x reaction buffer. After shaking for 5 seconds the reaction was monitored at NADH absorbance (340nm, 25°C) using a Molecular Devices SpectraMax M5 microplate reader. The linear portion of the progress curve was fit using plate-reader software. Percentage activity was calculated relative to DMSO only and no-substrate controls in each plate and the data were fit to Morrison’s quadratic using Graphpad Prism 9.3 to obtain apparent inhibition constant (Ki app) values. […]
(§10) 480 Real-Time PCR System as a function of a temperature ramp (25-95°C; 0.1°/s) and the Tm was calculated using the […]

E. coli FabI = molecular target: T1, E. coli FabI (Escherichia coli, UniProt P0AEK4); assay: In vitro FabI enzymatic inhibition assay; format: biochemical; settings: EcFabI; Morrison's quadratic fit; 5 nM enzyme; read-out: Ki app
T1 construct: His(6) with TEV site (cleaved yes); made in house; host or cells: E. coli BL21(DE3)
Method: as §7, §8, §9, §10

Aqueous solubility = format: physicochemical

T1 sequence (P0AEK4 whole entry): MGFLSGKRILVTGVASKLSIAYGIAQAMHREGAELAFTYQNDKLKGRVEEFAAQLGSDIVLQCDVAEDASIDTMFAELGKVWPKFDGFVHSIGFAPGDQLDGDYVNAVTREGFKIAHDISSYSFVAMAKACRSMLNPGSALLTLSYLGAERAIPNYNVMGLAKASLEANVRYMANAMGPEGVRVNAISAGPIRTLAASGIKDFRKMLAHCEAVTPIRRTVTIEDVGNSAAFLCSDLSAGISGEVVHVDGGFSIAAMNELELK
A. baumannii FabI, sequence (D0CAD5 entry or part of it): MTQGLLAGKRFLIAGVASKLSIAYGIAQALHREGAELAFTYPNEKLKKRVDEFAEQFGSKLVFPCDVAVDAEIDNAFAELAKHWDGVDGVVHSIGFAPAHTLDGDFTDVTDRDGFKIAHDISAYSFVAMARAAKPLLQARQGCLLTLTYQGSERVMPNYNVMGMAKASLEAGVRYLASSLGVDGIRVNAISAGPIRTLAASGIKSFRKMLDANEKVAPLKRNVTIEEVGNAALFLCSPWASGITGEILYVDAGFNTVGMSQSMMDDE

Cc1c(CN(C)C(=O)/C=C/c2cnc3c(c2)CC[C@H](NC(=O)OC(C)(C)C)C(=O)N3)oc2ccccc12 [(S)-11] gave an MIC (A. baumannii AR-0033) of 64 mg/L (≈ 127 µM), an MIC (A. baumannii AR-0273) of 8 mg/L (≈ 15.9 µM) and an MIC (A. baumannii AR-0299) of 8 mg/L (≈ 15.9 µM). It also gave an MIC (E. coli AR-0048) of 16 mg/L (≈ 31.7 µM), an MIC (E. coli AR-0085) of 8 mg/L (≈ 15.9 µM) and an MIC (E. coli MG1655) of 8 mg/L (≈ 15.9 µM). It also gave an MIC (K. pneumoniae AR-0066) of 64 mg/L (≈ 127 µM), an MIC (K. pneumoniae AR-0560) of 32 mg/L (≈ 63.4 µM) and an MIC (K. pneumoniae BAA-2472) of 32 mg/L (≈ 63.4 µM). It also gave an MIC (S. aureus ATCC 29213) of 0.016 mg/L (≈ 0.0317 µM), an MIC (E. coli ΔtolC (JW5503)) of 0.125 mg/L (≈ 0.248 µM) and an MIC (A. baumannii AR-0313) of 64 mg/L (≈ 127 µM). The MIC (K. pneumoniae AR-0113) was 32 mg/L (≈ 63.4 µM), the Ki (A. baumannii FabI) was 0.947 ± 0.234 µM and the Ki (E. coli FabI) was 0.06 ± 0.01 µM. For the same compound, the aqueous solubility (Aqueous solubility) was “limited aqueous solubility”.
